Test [1] relates to PKC binding to recombinant RACK1. The test can be described thus: Overlay / overlay-extraction assay: inhibition of PKC binding to recombinant RACK1 by peptides. More on the design: species or system rat. As to the method: The variation in the overlay protocol consisted of incubating the putative binding peptides with a mixture of PKC isozymes for 15 minutes at room temperature before the mixture was used to contact the nitrocellulose strips containing immobilized RACK1.
Nitrocellulose strips containing immobilized RACK1, that had been contacted with a solution containing a mixture of PKC isozymes, were washed and the area corresponding to the 36 kDa (RACK1-containing) band was cut out. The pieces (containing PKC/RACK1 complexes) were incubated with sample buffer for 10 minutes at 80° C. The sample buffer and the nitrocellulose pieces were then placed in wells in the PAGE gel and subjected to SDS-PAGE to elute the bound proteins. The gel was blotted onto nitrocellulose and a Western blot analysis was carried out using the mixture of antibodies (specific for PKC α, β, γ, δ, ε and ζ isozymes) described in Example 1 part B. Bound antibodies were detected by ^125I-protein A.
Peptides derived from or homologous to WD-40 repeats of RACK1 were tested for their ability to inhibit PKC binding to recombinant RACK1. Binding of PKC to RACK1 was carried out using a variation of the overlay procedure described in Example 3 part B. In the experimental samples, peptides were incubated with a solution containing a mixture of rat brain PKC isozymes (˜10 nM each) for 15 minutes at room temperature.
Following completion of the modified overlay protocol, the samples were subjected to the overlay-extraction protocol detailed in part B, above.
The results in FIG. 3 show the binding of PKC to RACK1, carried out without (lane 1) or with (lanes 2-4) a preincubation of peptides with PKC. […] Peptide I caused an 81±6% inhibition of PKC binding to recombinant RACK1 as compared with binding in the absence of added peptide (n=3). Lanes 3 and 4 show PKC binding following a preincubation with 10 μM peptide rIII (SEQ ID NO:4) and 10 μM peptide rVI (SEQ ID NO:7), respectively. […] The results shown are representative of three independent experiments.

Test [2] concerns the target T1, βPKC (Rattus norvegicus, UniProt P68403).
T1 construct: All the solutions contained 5 nM rat brain PKC; from tissue; host or cells: rat brain
The test can be described thus: Sensitivity of βPKC to Arg-C endopeptidase (nicking). It is filed as biochemical. The settings on record: low activators: 2.5 μg/ml PS and 50 μM CaCl2; for nicking of βPKC by Arg-C (78 kDa fragment): peptide 10 μM. From the text:
Upon activation of PKC, a pseudosubstrate autoinhibitory sequence at the N-terminus of the molecule dissociates from the catalytic site and becomes sensitive to endopeptidase Arg-C (Orr, et al.). In the absence of PKC activators, exposure of the 80 kDa βPKC to endopeptidase Arg-C has no effect on the enzyme (see FIG. 7, lane 1). In the presence of the PKC activators PS, DG and calcium, however, exposure of βPKC to Arg-C results in a “nicking” of the PKC (i.e. limited proteolysis generating a 78 kDa fragment and several small fragments (see FIG. 7, lane 2)). Continued exposure to Arg-C results in the disappearance of βPKC (Orr, et al.). The present experiment tests whether peptides derived from the WD-40 region of RACK1 alter the sensitivity of βPKC to endopeptidase Arg-C.
The methods used to assay Arg-C sensitivity are a modification of methods described by Orr, et al. Rat brain PKC (˜5 nM) was incubated at room temperature in 500 μl of 20 mM Tris-HCl buffer (pH 7.5) alone or with Arg-C (5 units/ml) in the presence or absence of the indicated peptides (final concentration 10 μM or as indicated), PS, DG, and calcium (as indicated). 50 μl aliquots were removed into 20 μl of sample buffer during the reaction as indicated (samples in all the lanes were incubated for 30 minutes , except lanes 5, and 6, which were incubated for 5 and 15 minutes, respectively). The samples were boiled for 10 minutes at 80° C. and loaded onto 8% SDS-PAGE. βPKC was detected by Western blot analysis using anti-βPKC antibodies as described in Examples 6 and 8.
PKC was incubated for the indicated time alone (lane 1) or in the presence of Arg-C (lanes 2-9), with DG (0.8 μg/ml), PS (50 μg/ml) and CaCl2 (1 mM; lane 2), with PS (50 μg/ml) and CaCl2 (1 mM; lane 3), with PS (2.5 μg/ml) and CaCl2 (50 μM; lane 4); with PS (2.5 μg/ml), CaCl2 (50 μM) and with either peptide rVI (SEQ ID NO:7; 10 μM; lanes 5-7), control peptide (SEQ ID NO:9; lane 8) or with peptide I (SEQ ID NO:1; lane 9).

The subject of test [3] is PKC. The test can be described thus: PKC autophosphorylation. The settings on record: peptide 10 μM; absence of PKC activators. In kind it is biochemical, rat. As to the method: Rat brain PKC (˜10 nM) was incubated with mild agitation in a final volume of 250 μl of overlay buffer, as in Example 1 either with anti-βPKC pseudosubstrate antibodies (1:10 dilution, Life Technologies, Gaithersburg, Md.) or with the indicated peptide (10 μM). Where indicated, PS (50 μg/ml), DG (0.8 μg/ml) and CaCl2 (1 mM) were also added. The amount of autophosphorylation was determined after 2 hours for the reaction with the anti-pseudosubstrate antibodies, or after 15 minutes for the other samples. 50 μl of a buffer comprised of 20 mM Tris-HCl (pH 7.5), 20 mM MgCl2, 20 μM ATP and 5 μci/ml [γ-^32P]ATP. The mixture was incubated for 15 minutes at room temperature and the reaction was stopped by adding 60 μl sample buffer (see Example 9). The samples were then boiled for 10 minutes, loaded onto a 10% SDS-PAGE mini gel and electrophoresed. The gel was fixed with 50% methanol and 10% acetic acid for 1 hour, and the autophosphorylation of PKC was determined by autoradiography.
The results in FIG. 8 show PKC autophosphorylation in the presence of DG, PS, and calcium (lane 1), in the presence of EGTA (lane 2), in the presence of anti-βPKC pseudosubstrate antibodies (diluted 1:10 in 20 mM Tris-HCl; lane 3), in the presence of peptide rVI (SEQ ID NO:7; 10 μM; lane 4), in the presence of peptide I (SEQ ID NO:1; 10 μM; lane 5), or in the presence of control peptide (SEQ ID NO:9; 10 μM; lane 6).

Test [4] relates to Xenopus oocytes. The test can be described thus: PKC-mediated Xenopus oocyte maturation (germinal vesicle breakdown, GVBD) after peptide microinjection. It is filed as cell-based. As to conditions: for dose dependence of effect on GVBD: between 5 μm-500 μM.
The mark [5] stands for this setting: peptide 50 μM alone, no insulin.

Entries after “also recorded” stand apart in the source; their conditions may differ.

The text below walks through data of patent US6342368B1, “WD-40-derived peptides and uses thereof” (The Board of Trustees of the Leland Stanford Junior …, priority 1994, dated 2002).

T1 sequence (P68403 whole entry): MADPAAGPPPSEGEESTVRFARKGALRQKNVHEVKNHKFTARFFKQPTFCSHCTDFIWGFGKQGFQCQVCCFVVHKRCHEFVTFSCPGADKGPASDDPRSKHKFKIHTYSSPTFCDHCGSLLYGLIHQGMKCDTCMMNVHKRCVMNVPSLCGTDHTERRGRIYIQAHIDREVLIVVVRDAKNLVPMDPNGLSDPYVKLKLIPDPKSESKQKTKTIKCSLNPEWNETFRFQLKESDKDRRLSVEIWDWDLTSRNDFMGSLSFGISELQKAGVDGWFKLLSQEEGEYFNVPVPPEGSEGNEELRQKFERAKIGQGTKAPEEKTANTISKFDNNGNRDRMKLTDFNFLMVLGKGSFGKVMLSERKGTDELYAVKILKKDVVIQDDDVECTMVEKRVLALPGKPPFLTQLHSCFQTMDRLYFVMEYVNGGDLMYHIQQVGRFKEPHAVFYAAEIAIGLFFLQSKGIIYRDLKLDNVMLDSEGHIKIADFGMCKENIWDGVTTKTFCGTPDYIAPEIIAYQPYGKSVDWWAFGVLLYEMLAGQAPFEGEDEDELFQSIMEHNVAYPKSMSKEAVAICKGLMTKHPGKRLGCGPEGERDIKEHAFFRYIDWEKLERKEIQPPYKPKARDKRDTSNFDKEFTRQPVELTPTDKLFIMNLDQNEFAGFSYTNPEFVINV

Consider “peptide I: 15-residue peptide homologous to a sequence in the sixth WD-40 repeat of RACK1; PKC antagonist (KGDYEKILVALCGGN)”, for which, in test [1] (10 μM peptide preincubated with PKC isozyme mixture 15 min, n=3), the “inhibition of PKC binding to recombinant RACK1 as compared with binding in the absence of added peptide” value is given as 81±6%. The “nicking of βPKC by Arg-C (78 kDa fragment)” value in test [2] is listed as “did not result in appreciable nicking activity; also recorded: did not occur”. Moreover, the “induction of PKC autophosphorylation (in words)” value in test [3] is listed as “No autophosphorylation; also recorded: Neither peptide I nor control peptide induced PKC autophosphorylation”. The “dose dependence of effect on GVBD” value in test [4] is reported as “dose-dependent”.

Take “peptide rVI: eight amino acid peptide identical to a segment of RACK1 WD-40 repeat VI (DIINALCF)”: the “inhibition of PKC binding to RACK1 (in words)” value in test [1] (10 μM peptide preincubated with PKC) is “inhibit the binding of PKC to RACK1”. For the same substance, in test [2], the “lowest peptide concentration sufficient to result in nicking activity” value came out at 10 nM and the “nicking of βPKC by Arg-C (78 kDa fragment)” value was “time-dependent appearance of the 78 kDa nicked PKC fragment”. Besides, in test [3], the “PKC autophosphorylation relative to that with optimal PS, DG and calcium” value is “over 80%”. Moreover, the “dose dependence of effect on GVBD” value in test [4] was “dose-dependent”. Further, in test [4] (setting [5]), the “delay to initiation of maturation in the absence of insulin” value lay within 6 to 7 h, the “induction of GVBD in the absence of insulin” value is recorded as “induced oocyte maturation; also recorded: induced GVBD” and the “plateau % GVBD in the absence of insulin” value was “about 50%”.
